Reference: US9000194B2, “Mangromicin compound and production method therefor” (The Kitasato Institute, priority 2011, dated 2015)
Values after ≈ are worked out from the molar mass of the structure shown.

Assays:
[1] = system: human fetal lung-derived normal fibroblast MRC-5 cells; assay: Cytotoxicity test (MTT assay); format: cell-based; details: for IC50: Homo sapiens, MRC5, 168 h, seven days culture, MTT assay, read-out: IC50 value MRC-5 cell; for Selectivity index (MRC-5 cytotoxicity IC50 / anti-trypanosoma IC50): (IC50 values for cytotoxicity)/(IC50 values for anti-trypanosoma activity)
Method: J. Antibiotics, 54: 658 to 663, (2001)]. That is, the human fetal lung-derived normal fibroblast MRC-5 cells [can be provided by Dr. […], Belgium)] were maintained and subcultured in the MEM-medium containing 10% bovine fetal serum (FCS) and antibiotics and were used as the host cell model. […] The presence or absence of the proliferation of the MRC-5 cells was measured by colorimetric quantification by the MTT assay. […] Also, the selectivity index (SI) was calculated as (IC50 values for cytotoxicity)/(IC50 values for anti-trypanosoma activity).

[2] = system: Trypanosoma brucei brucei GUTat 3.1 strain; assay: In vitro inhibitory activity on trypanosoma protozoa proliferation (Alamar Blue); details: for IC50: Trypanosoma brucei, 72 h, read-out: IC50 value Trypanosoma brucei brucei GUTat3.1 strain
[3] = system: the microorganisms listed in Table 7; assay: Antibacterial activity, paper disc method, overall statement; format: cell-based; details: summary in words
Method: The antibacterial activities of Mangromicins A, B and C of the present invention were measured by the following method. Filter paper discs (Advantec, a diameter of 6 mm) were impregnated with 10 μL of 1 mg/mL solutions of Mangromicins A, B and C in methanol, and air-dried for a certain period of time to remove the solvent. Subsequently, the discs were placed on agar plates each containing the test bacteria shown in Table 7, followed by culturing at 35° C. for 24 hours. The diameter of the growth inhibiting zones formed around the paper discs was measured.

[4] = system: Bacillus subtilis ATCC6633; assay: Antibacterial activity, paper disc method; format: cell-based; details: 6 mm disc, 10 μL of 1 mg/mL, 35° C., 24 hours, read-out: the diameter of inhibiton zones

Structure (SMILES)	IC50 [1]	IC50 [2]	Selectivity index (MRC-5 cytotoxicity IC50 / anti-trypanosoma IC50) [1]	anti-trypanosoma activity compared to suramin and eflornithine ([2]; T.b.b. GUTat 3.1 strain, relative to suramin and eflornithine)	antibacterial activities on the microorganisms listed in Table 7 [3]	zone of inhibition at 1000 µg/mL [4]
NCCCC(N)(C(=O)O)C(F)F (centres unmarked) [Eflornithine, eflornithine, reference compound]	> 100 µg/mL	2.27 µg/mL (≈ 12.5 µM)	–	–	–	–
CCCC1C(O)=C2CCC3(C)CC(C)C(O3)C(O)C(O)C(C)C(=O)CC1OC2=O (centres unmarked) [Mangromicin A]	16 µg/mL (≈ 39 µM)	2.44 µg/mL (≈ 5.94 µM)	6.6	equivalent or slightly inferior	almost no antibacterial activities	–
CCCC1C(O)=C2CCC3(C)CC(C)C(O3)C(O)/C=C(\C)C(=O)CC1OC2=O (centres unmarked) [Mangromicin B]	92.6 µg/mL (≈ 236 µM)	43.4 µg/mL (≈ 111 µM)	2.1	–	almost no antibacterial activities	7 mm
Cc1ccc(C(=O)Nc2ccc(S(=O)(=O)O)c3cc(S(=O)(=O)O)cc(S(=O)(=O)O)c23)cc1NC(=O)c1cccc(NC(=O)Nc2cccc(C(=O)Nc3cc(C(=O)Nc4ccc(S(=O)(=O)O)c5cc(S(=O)(=O)O)cc(S(=O)(=O)O)c45)ccc3C)c2)c1 [Suramin, suramin, reference compound]	> 100 µg/mL	1.58 µg/mL (≈ 1.22 µM)	–	–	–	–
